Where a name gives a salt, the structure may show the parent alone.
Experiments:
[1] = biological target: T1, B1R receptor of the rat (rB1R) (Rattus norvegicus, UniProt P97583); assay: Functional investigation on the bradykinin 1 receptor (B1R), FLIPR Ca2+ assay, rB1R cells; assay type: cell-based; conditions: test substance 10 μM; CHO K1 cells transfected with rat B1R gene; Fluo-4 Ca2+ signal; agonist Des-Arg9-bradykinin at EC80; % of maximum achievable inhibition; read-out: B1R antagonism, rat [10 μM] % inhibition
T1 construct: expressed in transfected cells; host or cells: CHO K1 cells
T1 sequence (P97583 1-337): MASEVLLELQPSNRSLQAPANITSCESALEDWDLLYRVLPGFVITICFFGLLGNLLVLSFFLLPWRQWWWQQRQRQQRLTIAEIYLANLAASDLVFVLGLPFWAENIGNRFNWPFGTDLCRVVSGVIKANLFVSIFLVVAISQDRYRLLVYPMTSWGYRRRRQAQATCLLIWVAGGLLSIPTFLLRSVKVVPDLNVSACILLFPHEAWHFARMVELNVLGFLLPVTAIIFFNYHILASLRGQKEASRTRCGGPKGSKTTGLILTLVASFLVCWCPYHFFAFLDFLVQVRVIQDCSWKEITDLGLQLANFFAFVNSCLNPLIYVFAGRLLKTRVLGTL
Method: (§1) The agonistic or antagonistic action of substances on the bradykinin 1 receptor (B1R) of the human and rat species can be quantified with ectopically expressing cell lines (CHO K1 cells) and with the aid of a Ca^2+-sensitive dyestuff (Fluo-4) in a fluorescent imaging plate reader (FLIPR). The value in % activation is based on the Ca^2+ signal after addition of Lys-Des-[…]-bradykinin (0.5 nM) or Des-[…]-bradykinin (100 nM). Antagonists lead to a suppression of the Ca^2+inflow after addition of the agonist. % inhibition compared with the maximum achievable inhibition is stated. The agonistic or antagonistic action of substances on the bradykinin 1 receptor (B1R) of the human and rat species can be determined with the following assay. In accordance with this assay, the Ca^2+ inflow through the channel is quantified with the aid of a Ca^2+-sensitive dyestuff (type Fluo-4, Molecular Probes Europe BV, Leiden, Holland) in a fluorescent imaging plate reader (FLIPR, Molecular Devices, Sunnyvale, USA). Chinese hamster ovary cells (CHO K1 cells) transfected stably with the human B1R gene (hB1R cells) or the B1R gene of the rat (rB1R cells) are used. For functional studies, these cells are plated out on black 96-well plates with a clear base (BD Biosciences, Heidelberg, Germany or Greiner, Frickenhausen, Germany) in a density of 20,000-35,000 cells/well. The cells are left overnight at 37° C. and 5% CO2 in culture medium (hB1R cells: Nutrient Mixture Ham's F12, Gibco Invitrogen GmbH, Karlsruhe, Germany or DMEM, Sigma-Aldrich, Taufkirchen, Germany; rB1R cells: D-MEM/F12, Gibco Invitrogen GmbH, Karlsruhe, Germany) with 10 vol. % FBS (foetal bovine serum, Gibco Invitrogen GmbH, Karlsruhe, Germany or PAN Biotech GmbH, Aidenbach, Germany). On the following day, the cells are loaded for 60 min at 37° C. with 2.13 μM Fluo-4 (Molecular Probes Europe BV, Leiden Holland) in HBSS buffer (Hank's buffered saline solution, Gibco Invitrogen GmbH, Karlsruhe, Germany) with 2.5 mM probenecid (Sigma-Aldrich, Taufkirchen, Germany) and 10 mM HEPES (Sigma-Aldrich, Taufkirchen, Germany). The plates are then washed 2× with HBSS buffer, and HBSS buffer which additionally contains 0.1% BSA (bovine serum albumin; Sigma-Aldrich, Taufkirchen, Germany), 5.6 mM glucose and 0.05% gelatine (Merck KGaA, Darmstadt, Germany) is added. After a further incubation of 20 minutes at room temperature, the plates are inserted into the FLIPR for the Ca^2+ measurement. Alternatively, the plates are washed with buffer A (15 mM HEPES, 80 mM NaCl, 5 mM KCl, 1.2 mM CaCl2, 0.7 mM MgSO4, 2 g/l glucose, 2.5 mM probenecid), buffer A is added and the plates are loaded with 2.5 μM Fluo-4 and 0.025% Pluronic F127 (Sigma-Aldrich, Taufkirchen, Germany). Thereafter, the cells are washed 2× with buffer A and incubated for 30 minutes at room temperature with buffer A, which additionally contains 0.05% BSA and 0.05% gelatine, and thereafter inserted into the FLIPR for the Ca^2+ measurement. The Ca^2+-dependent fluorescence is measured here before and after addition of substances (λex=488 nm, λem=540 nm). Quantification is by measurement of the highest fluorescence intensity (FC, fluorescence counts) over time. The FLIPR protocol consists of 2 additions of substance. Test substances (10 μM) are first pipetted on to the cells and the Ca^2+ inflow is compared with the control (hB1R: Lys-Des-[…]-bradykinin>=50 nM; rB1R: Des-[…]-bradykinin 10 μM). This gives the result in % activation based on the Ca^2+ signal after addition of Lys-Des-[…]-bradykinin (>=50 nM) or Des-[…]-bradykinin (10 μM). After incubation for 10-20 minutes, Lys-Des-[…]-bradykinin (hB1R) or Des-[…]-bradykinin (rB1R) at the EC80 concentration is applied and the inflow of Ca^2+ is likewise determined. Antagonists lead to a suppression of the Ca^2+ inflow. The percent inhibition compared to the maximum achievable inhibition is calculated. In order to determine the IC50 value, the substances are added in various concentrations. […]

[2] = biological target: T2, human B1R receptor (hB1R) (Homo sapiens, UniProt P46663); assay: Functional investigation on the bradykinin 1 receptor (B1R), FLIPR Ca2+ assay, hB1R cells; assay type: cell-based; conditions: test substance 10 μM; CHO K1 cells transfected with human B1R gene; Fluo-4 Ca2+ signal; agonist Lys-Des-Arg9-bradykinin at EC80; % of maximum achievable inhibition; read-out: B1R antagonism, human [10 μM] % inhibition
T2 construct: expressed in transfected cells; host or cells: CHO K1 cells
T2 sequence (P46663 1-353): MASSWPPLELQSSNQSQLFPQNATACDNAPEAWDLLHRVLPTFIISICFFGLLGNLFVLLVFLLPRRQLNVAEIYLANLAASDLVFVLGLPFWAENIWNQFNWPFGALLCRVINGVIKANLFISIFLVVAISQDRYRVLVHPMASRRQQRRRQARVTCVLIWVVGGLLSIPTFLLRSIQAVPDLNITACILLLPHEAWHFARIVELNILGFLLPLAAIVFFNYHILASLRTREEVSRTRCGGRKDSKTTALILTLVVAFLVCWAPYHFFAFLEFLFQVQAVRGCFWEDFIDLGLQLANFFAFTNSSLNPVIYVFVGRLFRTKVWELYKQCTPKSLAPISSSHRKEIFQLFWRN
Method: as §1

SMILES	inhibition at 10 µM [1] [%]	inhibition at 10 µM [2] [%]
COc1cc(C)c(S(=O)(=O)N2CCC[C@@H]2CCCS(=O)(=O)N2CCN(C3CCN(C)CC3)CC2)c(C)c1 [Example 34, (R)-1-(3-(1-(4-Methoxy-2,6-dimethylphenylsulfonyl)pyrrolidin-2-yl)propylsulfonyl)-4-(1-methylpiperidin-4-yl)piperazine]	96	99
CN1CCC(N2CCN(S(=O)(=O)CCC[C@@H]3CCCN3S(=O)(=O)c3cccc(C(F)(F)F)c3)CC2)CC1 [Example 35, (S)-1-(1-Methylpiperidin-4-yl)-4-(3-(1-(3-(trifluoromethyl)phenylsulfonyl)pyrrolidin-2-yl)propylsulfonyl)piperazine]	91	23
COc1cc(C)c(S(=O)(=O)N2C[C@@H](F)C[C@H]2CCCS(=O)(=O)N2CCC(Oc3ccncc3)CC2)c(C)c1 [Example 36, 4-(1-(3-((2R,4S)-4-Fluoro-1-(4-methoxy-2,6-dimethylphenylsulfonyl)pyrrolidin-2-yl)propylsulfonyl)piperidin-4-yloxy)pyridine]	89	95
CN1CCC(N2CCN(S(=O)(=O)CC3CCCCN3S(=O)(=O)c3cccc(C(F)(F)F)c3)CC2)CC1 (centres unmarked) [Example 37, 1-(1-Methylpiperidin-4-yl)-4-((1-(3-(trifluoromethyl)phenylsulfonyl)piperidin-2-yl)methylsulfonyl)piperazine]	40	53
Cc1cc(S(=O)(=O)N2CCCCC2CCS(=O)(=O)N2CCN(C3CCN(C)CC3)CC2)c(C)cc1Cl (centres unmarked) [Example 38, 1-(2-(1-(4-Chloro-2,5-dimethylphenylsulfonyl)piperidin-2-yl)ethylsulfonyl)-4-(1-methylpiperidin-4-yl)piperazine dihydrochloride]	47	101
Cc1cc(C)c(S(=O)(=O)N2CCC[C@@H]2CCCS(=O)(=O)N2CCN(C3CCN(C)CC3)CC2)c(C)c1 [Example 41, (R)-1-(3-(1-(Mesitylsulfonyl)pyrrolidin-2-yl)propylsulfonyl)-4-(1-methylpiperidin-4-yl)piperazine dihydrochloride]	7	50
Cc1cc(C)c(S(=O)(=O)N2CCCC2CCCCS(=O)(=O)N2CCN(C3CCN(C)CC3)CC2)c(C)c1 (centres unmarked) [Example 42, 1-(4-(1-(Mesitylsulfonyl)pyrrolidin-2-yl)butylsulfonyl)-4-(1-methylpiperidin-4-yl)piperazine dihydrochloride]	26	50
Cc1cc(S(=O)(=O)N2CCC(CCS(=O)(=O)N3CCN(Cc4cccc(C#N)c4)CC3)C2)c(C)cc1Cl (centres unmarked) [Example 43, 3-((4-(2-(1-(4-Chloro-2,5-dimethylphenylsulfonyl)pyrrolidin-3-yl)ethylsulfonyl)piperazin-1-yl)methyl)benzonitrile hydrochloride]	50	11
COc1cc(C)c(S(=O)(=O)N2CCC[C@H]2CCCS(=O)(=O)N2CCC(Oc3ccncc3)CC2)c(C)c1 [Example 47, (S)-4-(1-(3-(1-(4-Methoxy-2,6-dimethylphenylsulfonyl)pyrrolidin-2-yl)propylsulfonyl)piperidin-4-yloxy)pyridine]	95	95
O=S(=O)(CCC[C@@H]1CCCN1S(=O)(=O)c1ccccc1C(F)(F)F)N1CCC(Oc2ccncc2)CC1 [Example 48, (S)-4-(1-(3-(1-(2-(Trifluoromethyl)phenylsulfonyl)pyrrolidin-2-yl)propylsulfonyl)piperidin-4-yloxy)pyridine]	75	81

Second part, the compound after the results:

inhibition at 10 µM [1] [%]	inhibition at 10 µM [2] [%]	SMILES
36	98	CN1CCC(N2CCN(S(=O)(=O)CCC[C@@H]3CCCN3S(=O)(=O)CC(c3ccccc3)c3ccccc3)CC2)CC1 [Example 33, (S)-1-(3-(1-(2,2-Diphenylethylsulfonyl)pyrrolidin-2-yl)propylsulfonyl)-4-(1-methylpiperidin-4-yl)piperazine]
27	44	COc1cc(C)c(S(=O)(=O)N2CCCC(CCS(=O)(=O)N3CCC(CCN4CCCC4)CC3)C2)c(C)c1C (centres unmarked) [Example 39, 1-(4-Methoxy-2,3,6-trimethylphenylsulfonyl)-3-(2-(4-(2-(pyrrolidin-1-yl)ethyl)piperidin-1-ylsulfonyl)ethyl)piperidine hydrochloride]
105	82	COc1cc(C)c(S(=O)(=O)N2c3ccccc3CC2CCCS(=O)(=O)N2CCC(O)(c3cccnc3)CC2)c(C)c1 (centres unmarked) [Example 44, 1-(3-(1-(4-Methoxy-2,6-dimethylphenylsulfonyl)indolin-2-yl)propylsulfonyl)-4-(pyridin-3-yl)piperidin-4-ol]
102	98	COc1cc(C)c(S(=O)(=O)N2c3ccccc3CC2CCCS(=O)(=O)N2CCC3(CCN(c4ccncc4)CC3)CC2)c(C)c1 (centres unmarked) [Example 45, 1-(4-Methoxy-2,6-dimethylphenylsulfonyl)-2-(3-(9-(pyridin-4-yl)-3,9-diazaspiro[5.5]undecan-3-ylsulfonyl)propyl)indoline]
99	80	Cc1cccc(Cl)c1S(=O)(=O)N1CCC[C@H]1CCCS(=O)(=O)N1CCC(Oc2ccncc2)CC1 [Example 46, (S)-4-(1-(3-(1-(2-Chloro-6-methylphenylsulfonyl)pyrrolidin-2-yl)propylsulfonyl)piperidin-4-yloxy)pyridine]
36	30	O=S(=O)(CCC[C@@H]1CCCN1S(=O)(=O)c1ccc2ccccc2c1)N1CCC(Oc2ccncc2)CC1 [Example 49, (S)-4-(1-(3-(1-(Naphthalen-2-ylsulfonyl)pyrrolidin-2-yl)propylsulfonyl)piperidin-4-yloxy)pyridine]

From patent US8119805B2, “Substituted disulfonamide compounds” (Gruenenthal GmbH, priority 2008, dated 2012)
